Tested on: Aβ42
Assay: In vitro cell screening assay; quantification of Aβ (1-42) peptide by sandwich ELISA
Type: cell-based
Settings: Human neuroglioma H4 cells stably expressing human wild type APP751; compounds 0.003-10 μM, incubated overnight (16-18 h); Aβ42 in supernatant by sandwich ELISA; normalized to DMSO and DAPT; read-out: Aβ42 H4 Prot Fre IC50
Experimental: Human neuroglioma H4 cells were transfected with a pcDNA3.1 plasmid expressing human wild type APP751 cDNA and a stable cell line was generated using G418 selection. Cells were plated at 15,000 cells/well in Costar 96-well plates and placed at 37° C. and 5% CO2. Six hours after plating, cells were washed three times with Pro293™ chemically defined medium, followed by addition of compounds (0.003-10 μM, final DMSO concentration of 0.33%). Plates were incubated overnight (16-18 h) and supernatant was removed for quantification of Aβ peptides by sandwich ELISA. Cytotoxicity was evaluated using Cell-Titer 96W AQueous One Solution Cell Proliferation Assay according to the manufacturer's protocol.
Aβ peptide levels were quantified by sandwich ELISA. 96-well plates were coated with C-terminal specific Aβ antibodies recognizing either Aβ37, Aβ38, Aβ40, Aβ42, Aβ43 or a N-terminal specific Aβ antibody to detect Aβ 1-x. Plates were then blocked overnight at 4° C. with 1% bovine serum albumin (BSA) in PBS-T. Plates were washed and 100 μl of cultured cell supernatant or synthetic Aβ peptide standards and a detection antibody (4G8-HRP) were applied to the blocked plate and incubated overnight at 4° C. The next day, wells were washed before the addition of detection substrate (TMB peroxidase). Plates were then read for absorbance at 450 nm on a Molecular Devices SpectraMax M5e Microplate Reader.
Compound-treated samples were normalized to samples treated with DMSO alone (no inhibition) and to samples treated with DAPT. IC50 values were calculated from values reported as percent of DMSO controls using nonlinear regression, based on a sigmoidal dose—response (variable slope) model. […] used for calculation.

COc1nc(C2=NOC(C)C(c3cccc(Cl)c3)N2)ccc1-n1cnc(Cl)c1 (single isomer, unassigned; (+)) [Example 47B, (+)-3-(5-(4-chloro-1H-imidazol-1-yl)-6-methoxypyridin-2-yl)-5-(3-chlorophenyl)-6-methyl-5,6-dihydro-4H-1,2,4-oxadiazine]
IC50: 36.2 nM

COc1nc(C2=NOC(C)C(c3ccc(Cl)cc3)N2)ccc1-c1ccnc(C)c1 (single isomer, unassigned; (+)) [Example 48B, (+)-5-(4-chlorophenyl)-3-(2-methoxy-2′-methyl-[3,4′-bipyridin]-6-yl)-6-methyl-5,6-dihydro-4H-1,2,4-oxadiazine]
IC50: 18.2 nM

COc1nc(C2=NOC(C)C(c3cccc(Cl)c3)N2)ccc1-c1ccnc(C)c1 (single isomer, unassigned; (+)) [Example 49B, (+)-5-(3-chlorophenyl)-3-(2-methoxy-2′-methyl-[3,4′-bipyridin]-6-yl)-6-methyl-5,6-dihydro-4H-1,2,4-oxadiazine]
IC50: 15.8 nM

COc1nc(C2=NOC(C)C(c3c4n(c5ccc(Cl)cc35)CCOC4)N2)ccc1-n1cnc(C)c1 (single isomer, unassigned; (+)) [Example 50A, (+)-8-chloro-10-(3-(6-methoxy-5-(4-methyl-1H-imidazol-1-yl)pyridin-2-yl)-6-methyl-5,6-dihydro-4H-1,2,4-oxadiazin-5-yl)-3,4-dihydro-1H-[1,4] oxazino [4,3-a] indole]
IC50: 3.2 nM

COc1nc(C2=NOC(C)C(c3c4n(c5ccc(Cl)cc35)CCOC4)N2)ccc1-n1cnc(C)c1 (single isomer, unassigned; (+)) [Example 50D, (+)-8-chloro-10-(3-(6-methoxy-5-(4-methyl-1H-imidazol-1-yl)pyridin-2-yl)-6-methyl-5,6-dihydro-4H-1,2,4-oxadiazin-5-yl)-3,4-dihydro-1H-[1,4] oxazino [4,3-a] indole]
IC50: 6.3 nM

COc1nc(C2=NOC(C)C(c3cn(C)c4ncc(F)c(F)c34)N2)ccc1-n1cnc(C)c1 (single isomer, unassigned; (+)) [Example 51A, (+)-5-(4,5-difluoro-1-methyl-1H-pyrrolo [2,3-b]pyridin-3-yl)-3-(6-methoxy-5-(4-methyl-1H-imidazol-1-yl)pyridin-2-yl)-6-methyl-5,6-dihydro-4H-1,2,4-oxadiazine]
IC50: 11.7 nM

COc1nc(C2=NOC(C)C(c3cn(C)c4ncc(F)c(F)c34)N2)ccc1-n1cnc(C)c1 (single isomer, unassigned; (+)) [Example 51C, (+)-5-(4,5-difluoro-1-methyl-1H-pyrrolo [2,3-b]pyridin-3-yl)-3-(6-methoxy-5-(4-methyl-1H-imidazol-1-yl)pyridin-2-yl)-6-methyl-5,6-dihydro-4H-1,2,4-oxadiazine]
IC50: 975 nM

COc1nc(C2=NOC(C)C(c3cn(C)c4ncc(F)c(F)c34)N2)ccc1-n1cnc(C)c1 (single isomer, unassigned; (+)) [Example 51D, (+)-5-(4,5-difluoro-1-methyl-1H-pyrrolo [2,3-b]pyridin-3-yl)-3-(6-methoxy-5-(4-methyl-1H-imidazol-1-yl)pyridin-2-yl)-6-methyl-5,6-dihydro-4H-1,2,4-oxadiazine]
IC50: 68.9 nM

COc1nc(C2=NOC(C)C(c3cn(C)c4ccc(F)c(F)c34)N2)ccc1-n1cnc(C)c1 (single isomer, unassigned; (+)) [Example 52B, (+)-5-(4,5-difluoro-1-methyl-1H-indol-3-yl)-3-(6-methoxy-5-(4-methyl-1H-imidazol-1-yl)pyridin-2-yl)-6-methyl-5,6-dihydro-4H-1,2,4-oxadiazine]
IC50: 2.9 nM

COc1nc(C2=NOC(C)C(c3cn(C)c4ccc(F)c(F)c34)N2)ccc1-n1cnc(C)c1 (single isomer, unassigned; (+)) [Example 52C, (+)-5-(4,5-difluoro-1-methyl-1H-indol-3-yl)-3-(6-methoxy-5-(4-methyl-1H-imidazol-1-yl)pyridin-2-yl)-6-methyl-5,6-dihydro-4H-1,2,4-oxadiazine]
IC50: 5.8 nM
